Measured values taken from US12691114B2, “Compositions for inhibition of herpesviruses” (The Medical College of Wisconsin, Inc., priority 2020, dated 2026).
Where two headings read alike, the source gives them in different places.

Experiments:
Format in all cases: cell-based, human cytomegalovirus
[1] = test system: GCV-resistant HCMV Towne (C607Y mutation in UL97); assay: microbe, parasite or virus in culture
Excerpt: (§1) A GCV-resistant HCMV pp28-luciferase that contains a C607Y mutation in UL97 was reported^37. The HCMV TB40 strain was obtained from ATCC (VR-1578). Clinical isolates of Human Herpesvirus 1 and 2 (HSV1, HSV2) were collected from the Johns Hopkins Microbiology laboratory without identifiers that could link them to a specific patient. Mouse CMV (MCMV) Smith strain (ATCC VR-1399) was used for infection of MEFs.
(§2) Luciferase activity: Cell lysates were collected at 72 hpi and luciferase activity was determined using the Glomax-Multi+Detection System (Promega, Madison, WI) as described previously^20.
(§3) HCMV inhibition was measured by luciferase activity of pp28-recombinant Towne and pp28 GCV-resistant Towne strains of HCMV (72 hpi) and by plaque reduction using HCMV Towne or TB40 (10 days). Viral protein expression was measured by Western blot.

HCMV TB40 = assay: Drug combination with letermovir, plaque assay TB40, Bliss model; settings: read-out: EC50 (μM) of Compound 2
Experimental: Drug combination and analysis: These experiments were performed as previously reported^40. The combination of GCV and each compound was tested using the pp28-luciferase. Briefly, 2×10^6 HFFs/plate were seeded in 96-well plates and infected with the pp28-luciferase Towne HCMV strain (MOI=1). First, a dose response curve was generated for each drug individually to determine its EC50. Then, drugs were combined at twice their EC50, diluted in DMEM with 4% FBS, followed by serial dilution and added together after infection. Luciferase activity of the combination and each drug individually was quantified at 72 hpi. The combination of letermovir and each of the new compounds was tested by the plaque assay using TB40. The same principle applied in this assay for the drug combination effect, and plaques were counted at 8 dpi. The Bliss model was used to calculate the effect of each drug combination on pp28-luciferase activity and plaque reduction. In this model, drug combination represents the product of two probabilistically independent events as described in the following equation^41.
[formula] Where D is the drug concentration, m is the slope, and EC50 is the effective concentration resulting in 50% virus inhibition. The combined effect of two inhibitors (Fu, fractional unaffected) is computed as the product of individual effects of the two inhibitors, Fu1 and Fu2. If the ratio of observed fold inhibition divided by the expected fold inhibition is greater than 1, the compounds are synergistic. If the ratio is less than 1, the combination is considered antagonistic, and if it equals to 1 the combination is additive.
Pattern of drug combination with GCV and letermovir: The effect of each compound alone or in combination with GCV or letermovir was tested in HCMV-infected HFFs. […] A ratio of observed fold inhibition divided by the expected fold inhibition of >1 was considered drug synergy, <1 as drug antagonism, and =1 as additive. For letermovir and its combination with each of the five compounds the EC50 was determined based on plaque assay. The combination of GCV and 2955 was also tested by plaque assay. All other combinations and Bliss coefficients were measured by pp28- luciferase.

[2] = test system: HCMV Towne viral proteins (IE1/2, pp65, UL84, UL44); assay: Immunoblot of viral protein expression in infected HFFs; settings: HCMV Towne MOI of 1 PFU/cell, 72 hpi
Experimental: SDS-polyacrylamide gel electrophoresis and immunoblot analysis: Cell lysates containing equal amount of proteins were mixed with an equal volume of sample buffer (125 mM Tris-HCL, pH 6.8, 4% SDS, 20% glycerol and 5% β-mercaptoethanol) and boiled at 100° C. for 10 min. Denatured proteins were resolved in Tris-glycine polyacrylamide gels (8-10%) and transferred to polyvinylidine difluoride (PVDF) membranes (Bio-Rad Laboratories, Hercules, CA) by electroblotting. Membranes were incubated in blocking solution [5% w/v non-fat dry milk and 0.1% Tween-20 in PBS (PBST)] for 1 h, washed with PBST, and incubated with primary antibodies at 4° C. overnight. Membranes were washed with PBST and incubated with horseradish peroxidase-conjugated secondary antibodies in PBST for 1 h at room temperature. Following washing with PBST, protein bands were visualized by chemiluminescence using SuperSignal West Dura and Pico reagents (Pierce Chemical, Rockford, IL).
Antibodies: The following antibodies were used—Mouse monoclonal anti-HCMV IE1 & IE2 (MAB810, Millipore, Billerica, MA), mouse monoclonal anti-HCMV UL83 (pp65, Vector Laboratories Inc., Burlingame, CA), mouse monoclonal anti-HCMV UL44, mouse monoclonal anti-HCMV UL84, and mouse anti-β-actin anti-mouse IgG (Santa Cruz Biotechnology, Santa Cruz, CA). Horseradish peroxidase (HRP)-conjugated anti-mouse IgG was from GE Healthcare (Waukesha, WI). Horseradish peroxidase (RP)-conjugated anti-rabbit IgG was from Cell Signaling (Beverly, MA).

HCMV Towne DNA = assay: Viral DNA by US17 real-time PCR in cells and supernatants; settings: Towne MOI=0.1; NFU1827 5 μM, MLS8554 2 μM, MLS8091 1.5 μM, 2955 3 μM, GCV 5 μM
Excerpt: DNA isolation and quantitative real-time (qPCR): Total DNA was isolated from non-infected control, and HCMV-infected HFFs using Wizard SV genomic DNA isolation kit (Promega, Madison, WI). To determine viral load in the supernatant, total DNA was isolated from supernatants using automated DNA extraction on the BioRobot M48 instrument (Qiagen, Valencia, CA). A US17 real-time PCR assay which targets 151-bp from the highly conserved US17 region of the CMV genome was used^39. The primers and probe for US17 are: […]

HCMV Towne = assay: Add-on and removal assays, luciferase at 72 hpi; settings: for stage of maximal activity during HCMV replication, in words: add-on and removal assays; for add-on assay result, in words: compound added at times after infection; for add-on assay result, in words / removal assay result, in words: luciferase 72 hpi; for removal assay result, in words: compound removed at times after infection
Experimental: Add-on and removal assays: These assays were performed to identify at which stage during HCMV replication the compounds had maximal activity. In the add-on group, compounds were added to infected HFFs at 0, 6, 24, and 48 hpi, and luciferase activity was measured at 72 hpi. In the removal group, compounds were added immediately after virus infection and were subsequently removed after 0, 6, 24, and 48 h; luciferase was measured at 72 hpi.
Timing of HCMV inhibition: Add-on and removal assays were performed. Compounds were added or removed at 0, 6, 12, 24, 36 and 48 hpi, and luciferase activity was measured at 72 hpi.

[3] = molecular target: HCMV Towne (pp28-luciferase); assay: pp28-luciferase HCMV Towne assay in HFFs, luciferase activity at 72 hpi
Excerpt: as §1, §2, §3

[4] = pp28 GCV-resistant Towne, luciferase, 72 hpi, read-out: EC50—GCVR Towne
[5] = combination experiment with Letermovir
[6] = pp28-luciferase Towne, HFFs, 72 hpi, read-out: EC50—Towne
[7] = Human betaherpesvirus 5, combination experiment with Letermovir
[8] = Human betaherpesvirus 5, read-out: EC50—Towne (μM)

Row | Structure (SMILES) | EC50 [1, 4] | EC50 (HCMV TB40; [5]) | viral protein expression by Western blot, in words [2] | viral DNA replication in cells, in words (HCMV Towne DNA) | viral DNA yield in supernatant, in words (HCMV Towne DNA) | stage of maximal activity during HCMV replication, in words (HCMV Towne) | add-on assay result, in words (HCMV Towne) | removal assay result, in words (HCMV Towne) | EC50 [3, 6] | activity against GCV-resistant HCMV, in words [1] | anti-HCMV activity, in words ([3]; all the HCMV strains used) | EC50 (HCMV TB40; [7]) | EC50 [3, 8] | inhibition of luciferase activity, in words ([3]; compound after infection, MOI of 1 PFU/cell, 72 hpi) | EC50 ([1]; Human betaherpesvirus 5, read-out: EC50—GCVR Towne (μM))
1 | Nc1c(S(=O)(=O)c2cccs2)c2nc3ccccc3nc2n1Cc1ccccc1 [MLS8091] | 0.26 ± 0.02 µM | 0.13 ± 0.05 µM | Inhibition of all viral proteins | higher than that achieved with GCV | not significantly different from GCV | early-late stage | overlapped with that of GCV | showed earlier effects | 0.39 µM |  |  |  |  |  | 
2 | CCc1ccc(NC(=O)[C@H](Cc2c[nH]c3ccccc23)NC(=O)[C@@H]2Cc3ccccc3CN2)cc1 [MLS8554] | 0.17 µM | 0.14 ± 0.02 µM | reduced expression of IE2, UL44, UL84 and pp65 | reduced | reduced | immediate early-early | activity was significantly reduced | near complete | 0.64 ± 0.1 µM | active | active |  |  |  | 
3 | CC(C)NC(=O)C1CCN(C(=O)c2cc3sccc3n2Cc2ccc(Cl)cc2)CC1 [NCGC2955, 1-(4-(4-chlorobenzyl)-4H-thieno[3,2-b]pyrrole-5-carbonyl)-N-isopropylpiperidine-4-carboxamide] |  |  | strong reduction in viral protein expression including IE1 and IE2 | modest | modest | early-late stage | overlapped with GCV | longer activity than GCV |  | inhibited |  | 3.19 ± 0.17 µM | 4.61 ± 1.4 µM | did not show a full dose response | 
4 | CCN1CCN(CCCNC(=O)c2ccc3c(c2)sc2nc(-c4ccc(OC)cc4)cn23)CC1 [NFU1827, N-[3-(4-ethylpiperazin-1-yl)propyl]-4-(4-methoxyphenyl)-7-thia-2,5-diazatricyclo [6.4.0.02,6] dodeca-1(8),3,5,9,11-pentaene-10-carboxamide] |  |  | reduced the level of both IE1 and IE2 | significantly reduced | significantly reduced | immediate early-early | lost its ability to inhibit HCMV | significant HCMV suppression |  |  |  | 0.69 ± 0.07 µM | 0.85 ± 0.1 µM |  | 0.84 ± 0.1 µM
